Where “and” joins values, the source holds several entries; their conditions need not be identical. Equal values may be shown once. Inconclusive results and toxic doses are left out. No stated cut-off is given here; in the data, active means T/C of 150% or more; inactive means T/C below 125%.
Tested on: L1210 leukemia ip in BDF1 mice, survival T/C
Assay: NCI In Vivo Anticancer Drug Screen. Data for tumor model L1210 Leukemia (intraperitoneal) in B6D2F1 (BDF1) mice
Conditions: endpoint: mean survival time, higher = longer survival
Outline: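 Tumor cells were implanted, animals were treated, and survival was followed. The result divides the treated measurement by the vehicle-control measurement.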

[1] = dose: 100.0 mg/kg/injection, schedule: Q01DX009 (ip), vehicle: saline with Tween-80
[2] = dose: 100.0 mg/kg/injection, schedule: Q04DX002 (ip), vehicle: saline with Tween-80
[3] = dose: 200.0 mg/kg/injection, schedule: Q04DX002 (ip), vehicle: saline with Tween-80
[4] = dose: 400.0 mg/kg/injection, schedule: Q01DX009 (ip), vehicle: saline with Tween-80
[5] = dose: 400.0 mg/kg/injection, schedule: Q04DX002 (ip), vehicle: saline with Tween-80
[6] = dose: 100.0 mg/kg/injection, schedule: Q01DX001 (ip), vehicle: other
[7] = dose: 200.0 mg/kg/injection, schedule: Q01DX001 (ip), vehicle: other
[8] = dose: 400.0 mg/kg/injection, schedule: Q01DX001 (ip), vehicle: other
[9] = dose: 50.0 mg/kg/injection, schedule: Q01DX009 (ip), vehicle: saline with Tween-80
[10] = dose: 100.0 mg/kg/injection, schedule: Q04DX003 (ip), vehicle: saline with Tween-80
[11] = dose: 200.0 mg/kg/injection, schedule: Q01DX009 (ip), vehicle: saline with Tween-80
[12] = dose: 200.0 mg/kg/injection, schedule: Q04DX003 (ip), vehicle: saline with Tween-80
[13] = dose: 100.0 mg/kg/injection, schedule: Q04DX003 (ip), vehicle: Klucel (hydroxypropylcellulose) (HPC)
[14] = dose: 200.0 mg/kg/injection, schedule: Q04DX003 (ip), vehicle: Klucel (hydroxypropylcellulose) (HPC)
[15] = dose: 400.0 mg/kg/injection, schedule: Q04DX003 (ip), vehicle: Klucel (hydroxypropylcellulose) (HPC)
[16] = dose: 100.0 mg/kg/injection, schedule: Q01DX009 (ip), vehicle: Klucel (hydroxypropylcellulose) (HPC)
[17] = dose: 200.0 mg/kg/injection, schedule: Q01DX009 (ip), vehicle: Klucel (hydroxypropylcellulose) (HPC)
[18] = dose: 400.0 mg/kg/injection, schedule: Q01DX009 (ip), vehicle: Klucel (hydroxypropylcellulose) (HPC)

Measured: T/C

Oc1c(Br)cc(Br)cc1C=NCC1CCC(CN=Cc2cc(Br)cc(Br)c2O)CC1 (centres undefined)
inactive: [1] 92 % of control | [2] 110 % of control and 90 % of control | [3] 96 % of control and 90 % of control | [4] 92 % of control and 94 % of control | [5] 106 % of control and 90 % of control

COC(=O)C1C2CCC1(C)C(O)C2 (centres undefined)
inactive: dose: 75.0 mg/kg/injection, schedule: Q01DX009 (ip), vehicle: saline with Tween-80 96 % of control | dose: 150.0 mg/kg/injection, schedule: Q01DX009 (ip), vehicle: saline with Tween-80 107 % of control | dose: 300.0 mg/kg/injection, schedule: Q01DX009 (ip), vehicle: saline with Tween-80 100 % of control

Nc1nnnc2c1cnn2C1OC(CO)C(O)C1O (centres undefined)
inactive: [6] 97 % of control | [7] 101 % of control | [8] 101 % of control

O=C(CC(O)(C(F)(F)Cl)C(F)(F)Cl)c1ccco1
inactive: [9] 98 % of control | [1] 98 % of control | [10] 103 % of control | [11] 95 % of control | [12] 90 % of control

NC(=S)c1cccnc1
inactive: dose: 50.0 mg/kg/injection, schedule: Q01DX003 (ip), vehicle: Klucel (hydroxypropylcellulose) (HPC) 94 % of control | dose: 100.0 mg/kg/injection, schedule: Q01DX003 (ip), vehicle: Klucel (hydroxypropylcellulose) (HPC) 94 % of control | [13] 109 % of control | dose: 200.0 mg/kg/injection, schedule: Q01DX003 (ip), vehicle: Klucel (hydroxypropylcellulose) (HPC) 97 % of control | [14] 111 % of control | [15] 109 % of control

O=C1Nc2ccccc2C12Nc1cccnc1N2 (centres undefined)
inactive: dose: 100.0 mg/kg/injection, schedule: Q01DX001 (ip), vehicle: saline with Tween-80 97 % of control | dose: 200.0 mg/kg/injection, schedule: Q01DX001 (ip), vehicle: saline with Tween-80 87 % of control

CCc1oc(=O)c2ccccc2c1-c1ccccc1
inactive: [9] 93 % of control | [1] 90 % of control | [11] 93 % of control

CC(C)OC(=O)Nc1ccc(-c2ccc(NC(=O)OC(C)C)cc2)cc1
inactive: [16] 95 % of control | [13] 91 % of control | [17] 97 % of control | [14] 91 % of control | [18] 97 % of control | [15] 98 % of control

CCCCC(=O)N/N=C/c1cccc(OC)c1OC
inactive: dose: 100.0 mg/kg/injection, schedule: Q01DX001 (ip), vehicle: carboxymethylcellulose (CMC) 92 % of control | dose: 200.0 mg/kg/injection, schedule: Q01DX001 (ip), vehicle: carboxymethylcellulose (CMC) 92 % of control | dose: 400.0 mg/kg/injection, schedule: Q01DX001 (ip), vehicle: carboxymethylcellulose (CMC) 101 % of control

C/C(=C\Cn1cc([N+](=O)[O-])ccc1=O)CCC(=O)O
inactive: dose: 100.0 mg/kg/injection, schedule: Q01DX009 (ip), vehicle: water 108 % of control | dose: 100.0 mg/kg/injection, schedule: Q04DX003 (ip), vehicle: other 102 % of control | dose: 200.0 mg/kg/injection, schedule: Q01DX009 (ip), vehicle: water 96 % of control | dose: 200.0 mg/kg/injection, schedule: Q04DX003 (ip), vehicle: other 98 % of control | dose: 400.0 mg/kg/injection, schedule: Q01DX009 (ip), vehicle: water 97 % of control | dose: 400.0 mg/kg/injection, schedule: Q04DX003 (ip), vehicle: other 102 % of control

O=C(Nc1ccc(Cl)cc1)Oc1c(Cl)cc(S(=O)(=O)F)cc1Cl
inactive: dose: 25.0 mg/kg/injection, schedule: Q04DX002 (ip), vehicle: Klucel (hydroxypropylcellulose) (HPC) 94 % of control | dose: 50.0 mg/kg/injection, schedule: Q01DX009 (ip), vehicle: Klucel (hydroxypropylcellulose) (HPC) 97 % of control | dose: 50.0 mg/kg/injection, schedule: Q04DX002 (ip), vehicle: Klucel (hydroxypropylcellulose) (HPC) 91 % of control | [16] 97 % of control | dose: 100.0 mg/kg/injection, schedule: Q04DX002 (ip), vehicle: Klucel (hydroxypropylcellulose) (HPC) 99 % of control and 91 % of control

OCC1C2CCC(C2)C1CO (centres undefined)
inactive: [9] 96 % of control

CC(SC1=NCCN1)C(=O)O (centres undefined)
inactive: dose: 100.0 mg/kg/injection, schedule: Q01DX001 (ip), vehicle: saline 98 % of control | dose: 200.0 mg/kg/injection, schedule: Q01DX001 (ip), vehicle: saline 94 % of control | dose: 400.0 mg/kg/injection, schedule: Q01DX001 (ip), vehicle: saline 98 % of control

BrCc1ccc(-c2ccccc2)cc1
inactive: dose: 5.0 mg/kg/injection, schedule: Q01DX009 (ip), vehicle: Klucel (hydroxypropylcellulose) (HPC) 96 % of control | dose: 5.0 mg/kg/injection, schedule: Q04DX003 (ip), vehicle: Klucel (hydroxypropylcellulose) (HPC) 92 % of control | dose: 10.0 mg/kg/injection, schedule: Q01DX009 (ip), vehicle: Klucel (hydroxypropylcellulose) (HPC) 93 % of control | dose: 10.0 mg/kg/injection, schedule: Q04DX003 (ip), vehicle: Klucel (hydroxypropylcellulose) (HPC) 97 % of control | dose: 20.0 mg/kg/injection, schedule: Q01DX009 (ip), vehicle: Klucel (hydroxypropylcellulose) (HPC) 98 % of control | dose: 20.0 mg/kg/injection, schedule: Q04DX003 (ip), vehicle: Klucel (hydroxypropylcellulose) (HPC) 93 % of control

Cc1cc(Cc2cc(C)c(C)c(C)c2C)c(C)c(C)c1C
inactive: [6] 96 % of control | [7] 95 % of control | [8] 90 % of control

CC(N=Nc1ccccc1)/N=N/c1nn[nH]n1 (centres undefined)
inactive: [13] 100 % of control | [14] 94 % of control | [15] 96 % of control

O=C(Cn1cc(F)c(=O)[nH]c1=O)c1ccc(Cl)s1
inactive: [1] 108 % of control | [10] 100 % of control | [11] 89 % of control | [12] 97 % of control | [4] 97 % of control | dose: 400.0 mg/kg/injection, schedule: Q04DX003 (ip), vehicle: saline with Tween-80 102 % of control

CC(C)(C)[Si](C)(C)OC1CCP(C)(=S)CC1 (centres undefined)
inactive: [2] 98 % of control | [3] 91 % of control | [5] 95 % of control

Clc1ccnc(Cl)n1
inactive: dose: 100.0 mg/kg/injection, schedule: Q01DX009 (ip), vehicle: saline 97 % of control | dose: 100.0 mg/kg/injection, schedule: Q04DX003 (ip), vehicle: saline 96 % of control | dose: 200.0 mg/kg/injection, schedule: Q01DX009 (ip), vehicle: saline 101 % of control | dose: 200.0 mg/kg/injection, schedule: Q04DX003 (ip), vehicle: saline 96 % of control | dose: 400.0 mg/kg/injection, schedule: Q01DX009 (ip), vehicle: saline 97 % of control | dose: 400.0 mg/kg/injection, schedule: Q04DX003 (ip), vehicle: saline 97 % of control

O=[N+]([O-])c1cccc2nonc12
inactive: dose: 3.12 mg/kg/injection, schedule: Q04DX002 (ip), vehicle: Klucel (hydroxypropylcellulose) (HPC) 93 % of control | dose: 6.25 mg/kg/injection, schedule: Q04DX002 (ip), vehicle: Klucel (hydroxypropylcellulose) (HPC) 109 % of control | dose: 12.5 mg/kg/injection, schedule: Q04DX002 (ip), vehicle: Klucel (hydroxypropylcellulose) (HPC) 102 % of control

CCCCCCCCc1ccc(C(C)=O)cc1
inactive: [16] 94 % of control | [13] 102 % of control | [17] 96 % of control | [14] 100 % of control | [18] 86 % of control | [15] 107 % of control

COc1cc(O)c([N+](=O)[O-])cc1OC
inactive: dose: 50.0 mg/kg/injection, schedule: Q04DX003 (ip), vehicle: DMSO 92 % of control | dose: 100.0 mg/kg/injection, schedule: Q04DX003 (ip), vehicle: DMSO 97 % of control | dose: 200.0 mg/kg/injection, schedule: Q04DX003 (ip), vehicle: DMSO 92 % of control

CC1C(c2ccccc2)CC(c2ccccc2)OS1(=O)=O (centres undefined)
inactive: dose: 100.0 mg/kg/injection, schedule: Q01DX001 (ip), vehicle: Klucel (hydroxypropylcellulose) (HPC) 95 % of control | [13] 103 % of control | dose: 200.0 mg/kg/injection, schedule: Q01DX001 (ip), vehicle: Klucel (hydroxypropylcellulose) (HPC) 97 % of control | [14] 94 % of control | dose: 400.0 mg/kg/injection, schedule: Q01DX001 (ip), vehicle: Klucel (hydroxypropylcellulose) (HPC) 93 % of control | [15] 97 % of control

O=C(Cc1ccccc1)c1ccc(O)cc1
inactive: [13] 102 % of control | [14] 102 % of control | [15] 88 % of control

From PubChem BioAssay AID248 (DTP/NCI, 2004)
